# How the values were obtained:
# Assay type in all cases: cell-based
# filaggrin [1] = experiment: Test 2 on promotion of filaggrin production: dot blotting in normal human epidermal cells; settings: 72 hours
# Protocol: After samples were prepared using human epidermal cells, production of filaggrin was observed by dot blotting and the quantity of filaggrin was determined.
# Normal human epidermal cells (hereinafter, “epidermal cells”) (from Kurabo Industries Ltd.) were seeded at a cell density of 1.0×10^4 cells/well in a 96-well culture plate using a growth medium (KG2 medium: from Kurabo Industries Ltd.). After the cells were cultured at 37° C. under 5% carbon dioxide for 24 hours, the medium was replaced with media (KB2 media not containing bovine pituitary extract: from Kurabo Industries Ltd.) to which Samples 5 to 10 described below were respectively added. Each of Samples 5 and 8 as controls is a medium only. Samples 6, 7, 9, and 10 are different from one another in the type and/or concentration (mass % with respect to the medium) of a diacylglycerol PEG adduct to be added to the medium. • Sample 5: Control (N.C.) • Sample 6: GDM12 (0.0005%) • Sample 7: GDM12 (0.0010%) • Sample 8: Control (N.C.) • Sample 9: GDS23 (0.0025%) • Sample 10: GDS23 (0.0050%)
# Thereafter, for each sample, the epidermal cells were cultured at 37° C. under 5% carbon dioxide for 72 hours. Subsequently, the epidermal cells were cleaned with PBS(−), 0.5% Triton X-100 (containing 2 mM PMSF) was then added, and thereafter the cells were disrupted by sonication.
# A fixed amount of the suspension of disrupted cells was blotted on a nitrocellulose membrane and dried overnight. The transfer membrane after drying was immersed in a PBS solution of 1% BSA and blocked at room temperature for 1 hour. Thereafter, the membrane was cleaned with PBS(−), and an anti-human filaggrin antibody (Anti-Filaggrin: from ARGENE SA) was added onto the transfer membrane at a dilution concentration of 1:4000. The mixture was made to react at room temperature for 1 hour, and then the transfer membrane was cleaned with a PBS solution.
# Thereafter, an immunohistochemical staining reagent (Histofine Simple Stain MAX-PO(M): from Nichirei Biosciences Inc.) was added onto the transfer membrane at a dilution concentration of 1:100 and was made to react at room temperature for 1 hour. […]
# The brightness of each spot in the spot image obtained by dot blotting was quantitively determined using an analyzer (CS Analyzer Version 2.0: from ATTO Corporation).
# FIG. 2a illustrates respective spot images for Samples 5, 6 and 7 related to GDM12, and FIG. 2b illustrates the production quantity of filaggrin for each sample determined based on FIG. 2a. The vertical axis of the graph represents the relative quantity when the quantity for the control N.C. is assumed as 100% (the same representation is also applied to graphs in drawings that will be described later).
# filaggrin [2] = experiment: Test 1 on promotion of filaggrin production: filaggrin immunostaining of human three-dimensional cultured epidermis model; settings: 2%, 3.5% solutions in PBS(−) (Samples 2-4)
# Protocol: After samples were prepared using a human epidermis model, production of filaggrin was observed by applying two staining methods, that is, an immunostaining method using an anti-filaggrin antibody and the method of Hematoxylin Eosin staining.
# A human three-dimensional cultured epidermis model (hereinafter, “epidermis model”) (LabCyteEPI-MODEL24 6D: from Japan Tissue Engineering Co., Ltd.) was subjected to treatment in the following manner to prepare samples.
# First, the epidermis model was incubated in an agar medium at room temperature for 24 hours. Thereafter, the epidermis model was cultured in a medium (an assay medium: from Japan Tissue Engineering Co., Ltd.) at 37° C. for 48 hours. […]
# Thereafter, an anti-filaggrin antibody (from GeneTex, Inc.) was made to react with that section at 37° C. overnight, and an anti-mouse IgG Alexa Fluor (registered trademark) 488 antibody (from Cell Signaling Technology, Inc.) was further made to react at 37° C. for 2 hours. […] Then, green fluorescence and blue fluorescence were observed using a fluorescence microscope. The green fluorescence indicates the presence of filaggrin. The blue fluorescence is for confirming that there is no abnormality in cells of the epidermis model.
# caspase-14 mRNA = experiment: Caspase-14 mRNA expression (quantitative real-time PCR) in normal human epidermal cells; settings: for expression of caspase-14 mRNA versus N.C. / expression of caspase-14 mRNA, relative to N.C. = 100%: 3 hours; for expression of caspase-14 mRNA, relative to N.C. = 100%: corrected with cyclophilin
# Protocol: After samples were prepared using human epidermal cells, RNA of the cells was extracted and the quantity of caspase-14 mRNA was determined.
# Normal human epidermal cells (hereinafter, “epidermal cells”) (from Kurabo Industries Ltd.) were seeded at a cell density of 2.0×10^4 cells/well in a 96-well culture plate using a growth medium (KG2 medium: from Kurabo Industries Ltd.). After the cells were cultured at 37° C. under 5% carbon dioxide for 24 hours, the media were replaced with media (KB2 media not containing bovine pituitary extract: from Kurabo Industries Ltd.) to which Samples 19 to 26 described below were respectively added. Each of Samples 19 and 24 as controls is a medium only. Samples 20, 21, 22, 23, and 25 are different from one another in the type and/or concentration (mass % with respect to the medium) of a diacylglycerol PEG adduct contained in the medium. • Sample 19: Control (N.C.) • Sample 20: GDM12 (0.001%) • Sample 21: GDM12 (0.004%) • Sample 22: GDM12 (0.020%) • Sample 23: GDM12 (0.100%) • Sample 24: Control (N.C.) • Sample 25: GDS23 (0.0004%)
# Subsequently, the epidermal cells were cultured at 37° C. under 5% carbon dioxide for 3 hours. Subsequently, RNA was extracted from the cells.
# Reverse transcription of the extracted RNA was performed to generate cDNA, and the quantity of caspase-14 mRNA was determined by quantitative real-time PCR expression analysis. Cyclophilin was used as an internal standard. In the analysis, the expression level of caspase-14 was corrected with a value of the expression level of cyclophilin as the internal standard in the same sample, and thereafter the correction value of each sample was calculated, assuming the correction value of the control sample as 100%.
# profilaggrin mRNA = experiment: Amplification test of profilaggrin mRNA (quantitative real-time PCR) in normal human epidermal cells; settings: for expression of profilaggrin mRNA, relative to N.C. = 100%: corrected with cyclophilin
# Protocol: After samples were prepared using human epidermal cells, RNA of the cells was extracted and the quantity of mRNA of profilaggrin was determined.
# Normal human epidermal cells (hereinafter, “epidermal cells”) (from Kurabo Industries Ltd.) were seeded at a cell density of 2.0×10^4 cells/well in a 96-well culture plate using a growth medium (KG2 medium: from Kurabo Industries Ltd.). After the cells were cultured at 37° C. under 5% carbon dioxide for 24 hours, the media were replaced with media (KB2 media not containing bovine pituitary extract: from Kurabo Industries Ltd.) to which Samples 11 to 18 described below were respectively added. Each of Samples 11, 14, and 17 as controls is a medium only. Samples 12, 13, 15, 16, and 18 are different from one another in the type and/or concentration (mass % with respect to the medium) of a diacylglycerol PEG adduct. • Sample 11: Control (N.C.) • Sample 12: GDS12 (0.100%) • Sample 13: GDS12 (0.050%) • Sample 14: Control (N.C.) • Sample 15: GDM12 (0.001%) • Sample 16: GDM12 (0.004%) • Sample 17: Control (N.C.) • Sample 18: GDS23 (0.002%)
# Thereafter, the epidermal cells were cultured at 37° C. under 5% carbon dioxide for 3 hours. Subsequently, RNA was extracted from the cells.
# Reverse transcription of the extracted RNA was performed to generate cDNA, and the quantity of profilaggrin mRNA was determined by quantitative real-time PCR expression analysis. Cyclophilin was used as an internal standard. In the analysis, the expression level of profilaggrin was corrected with a value of the expression level of cyclophilin as the internal standard in the same sample, and thereafter the correction value for each sample was calculated assuming the correction value for the control N.C. as 100%.
substance,measurement,setting,value
PEG-12 glycerol dimyristate [GDM12],"production quantity of filaggrin, relative to N.C. = 100%",filaggrin [1]; 0.0005% in medium (Sample 6),≥ 200%
same,"production quantity of filaggrin, relative to N.C. = 100%",filaggrin [1]; 0.0010% in medium (Sample 7),≥ 200%
same,concentration dependence of production quantity of filaggrin,filaggrin [2],more as the concentration of the GDM12 solution is higher
same,production quantity of filaggrin in the stratum corneum (green fluorescence) versus N.C.,"filaggrin [2]; 30 μL on stratum corneum, 18 hours, model recovered 6 days after application",more than that of the epidermis model of N.C.
same,expression of caspase-14 mRNA versus N.C.,caspase-14 mRNA; 0.001% in medium (Sample 20),increased
same,expression of caspase-14 mRNA versus N.C.,caspase-14 mRNA; 0.004% in medium (Sample 21),increased
same,"expression of caspase-14 mRNA, relative to N.C. = 100%",caspase-14 mRNA; 0.020% in medium (Sample 22),about 200%
same,"expression of caspase-14 mRNA, relative to N.C. = 100%",caspase-14 mRNA; 0.100% in medium (Sample 23),about 400%
same,concentration dependence of increase of caspase-14 mRNA,caspase-14 mRNA; Samples 20-23 (0.001% to 0.100%),the increase is larger as the concentration of GDM12 is higher
same,increase of expression of profilaggrin mRNA versus N.C.,"profilaggrin mRNA; 0.001% in medium (Sample 15), 3 hours",slight
same,"expression of profilaggrin mRNA, relative to N.C. = 100%","profilaggrin mRNA; 0.004% in medium (Sample 16), 3 hours",about 150%
PEG-12 glycerol distearate [GDS12],"expression of profilaggrin mRNA, relative to N.C. = 100%","profilaggrin mRNA; 0.050% in medium (Sample 13), 3 hours",about 150%
same,"expression of profilaggrin mRNA, relative to N.C. = 100%","profilaggrin mRNA; 0.100% in medium (Sample 12), 3 hours",about 150%
same,concentration dependence of increase of profilaggrin mRNA,"profilaggrin mRNA; Samples 12 and 13 (0.100%, 0.050%)",the increase is larger as the concentration of GDS12 is higher
PEG-23 glycerol distearate [GDS23],"production quantity of filaggrin, relative to N.C. = 100%",filaggrin [1]; 0.0025% in medium (Sample 9),about 200%
same,"production quantity of filaggrin, relative to N.C. = 100%",filaggrin [1]; 0.0050% in medium (Sample 10),about 200%
same,"expression of caspase-14 mRNA, relative to N.C. = 100%",caspase-14 mRNA; 0.0004% in medium (Sample 25),about 150%
same,"expression of profilaggrin mRNA, relative to N.C. = 100%","profilaggrin mRNA; 0.002% in medium (Sample 18), 3 hours",about 120%

# Reference: patent publication US20220062429A1, “METHOD FOR ENHANCING EXPRESSION OF MOISTURIZING-RELATED SUBSTANCE IN EPIDERMIS” (J-Network, Inc., priority 2020, published 2022)
